Assay results published in patent US20230381205A1, “COMPOSITIONS AND METHODS FOR TREATING NEURONAL DISORDERS WITH CANNABINOIDS” (INMED PHARMACEUTICALS INC., priority 2020, published 2023).

Tests used:
BAX = assay: Western blot of BAX (pro-apoptotic marker); format: cell-based, human; conditions: CBGA alone or in the presence of Aβ1-42 (5 μM), FIG. 9
Description: (§1) For Western blot analysis, control and the treated cells were harvested and lysed in cold lysis buffer (150 mM NaCl, 50 mM Tris-HCl, 1% Triton X-100, 0.1% SDS, 0.5% Sodium deoxycholate, and 1% protease-phosphatase inhibitor mixture). The supernatants were collected and protein concentrations were determined using Bio-Rad protein assay (Bio-Rad Laboratories). Whole cell lysates (10 μg) were subjected to 10% SDS-polyacrylamide electrophoresis and transferred to nitrocellulose membrane. The membranes were blocked with 5% skim milk in TBS-T (Tris-buffered saline with 0.05% Tween-20) for 1 h at RT and blotted overnight in the presence of monoclonal anti-mouse MAP2 (1:1000, Sigma, cat. no. M1406), Tau (1:1000, Invitrogen, cat. no. AHB0042), TUJI (1:5000, BioLegend, cat. no. MMS-435P), BAX (1:1000, Cell signaling, cat. no. 2772) and rabbit polyclonal total and phosphorylated BCL (1:1000, Cell signaling, antibodies #2827 and 2870). The membranes were washed and incubated for 1 h in RT with either horseradish peroxidase (HRP)-conjugated goat anti-mouse (1:2000) or goat anti-rabbit antibodies (1:2000) (Jackson Lab). The membranes were washed and developed using chemiluminescence detection kit (Millipore, Billerica, MA, USA) on Alpha Innotech FluorChem 8800. β-Actin or Vinculin was used as a loading control. […]

CB1R = assay: Changes in CB1 receptor expression and translocation; format: cell-based; conditions: CBGA 5 μM, 10 μM, dose-dependent; FIG. 11
From the text: FIG. 11 Changes in receptor expression.

MAP2 = assay: Western blot of MAP2 neuritogenesis marker; format: cell-based, human; conditions: FIG. 15
Description: FIG. 15 CBGA upregulates the expression of MAP2 neuritogenesis marker. […] Changes in prominent intracellular marker of neurite growth, microtubule-associated protein 2 (MAP2) was determined using western blot analysis. Histogram showing densitometric analysis of relative expression of MAP2. β-Actin was used as a loading control.
as §1, with “2870).” for “2870). The membranes were washed and incubated for 1 h in RT with either horseradish peroxidase (HRP)-conjugated goat anti-mouse (1:2000) or goat anti-rabbit antibodies (1:2000) (Jackson Lab). The membranes were washed and developed using chemiluminescence detection kit (Millipore, Billerica, MA, USA) on Alpha Innotech FluorChem 8800. β-Actin or Vinculin was used as a loading control.”

[1] = tested on: differentiated SH-SY5Y human neuronal cells; assay: MTT assay: neuroprotection from Staurosporin (STSR) induced cytotoxicity; format: cell-based
Description: Cell Culture and Differentiation: The SH-SY5Y human neuronal cell line was derived from neuroblastoma established from a metastatic bone tumor (patient with neuroblastoma). The cells were maintained in DMEM:F12 culture medium supplemented with 10% FBS and 1% Antibiotic-Antimycotic penicillin/streptomycin (growth medium) at 37° C. in a humidified atmosphere of 5% CO2. To induce neuronal differentiation of SH-SY5Y cells, culture media was replaced by a growth medium containing Retinoic Acid (RA) for 4-5 days at 37° C. in a humidified atmosphere of 5% CO2.
Compounds and Dosing Formulations: Selected cannabinoids: CBD, CBDA, CBC, CBG, CBGA, CBN, CBND and Δ^9-THC were procured from Cayman Chemicals and TRC. Ethanol (100%) was used as the solvent to prepare 1 and 10 mM stock solutions. Treatment concentrations for CBGA were prepared at 0.5 μM, 1.5 μM, 5 μM, 10 μM, 15 μM, 20 μM. Treatment concentrations for CBD, CBDA, CBC, CBN, CBND and Δ^9-THC were prepared at 0.5, 1.5, 5 and for CBG at 0.5 μM, 1.5 μM, 5 μM, 10 μM, 15 μM. Treatments were prepared directly in the control medium (DMEM:F12+5% FBS+1% Antibiotic-Antimycotic) by using appropriate stock solutions.
Evaluation of Cytotoxicity and Neuroprotection: Evaluation of cannabinoids neuroprotection and cytotoxicity on differentiated SH-SY5Y human neuronal cells was carried out by MTT (3-(4,5-dimethylthiazol-2-yl)-2,5-diphenyltetrazolium bromide) assay. Initially, cannabinoid cytotoxicity and neuroprotection were evaluated in a primary screen assay without the presence of cytotoxicity inducing insult agents. […] The Retinoic Acid (RA) differentiated SH-SY5Y neuronal cells were seeded onto 96-well plates (10,000 cells/well) in DMEM:F12 complete medium. Cells were differentiated for 4-5 days in the presence of RA.
MTT Assay: For the MTT assay, differentiated SH-SY5Y neuronal cells were treated with cannabinoids at various concentrations for 72 hrs in the presence of STSR at 75 nM, 100 nM, 150 nM and 200 nM or for 24 hrs in the presence of […] at 5 μM, respectively and processed to determine cytotoxicity. Briefly, 5 mg/mL of methylthiazolyldiphenyl-tetrazolium bromide (Sigma-Aldrich) stock solution was prepared in PBS. Following treatment of SH-SY5Y neuronal cells with cannabinoids for 72 hrs, the cells were incubated with 20 μL of MTT stock solution in 200 μL DMEM for 2 hrs at 37° C. Following subsequent washes with PBS, 200 μL of isopropanol was added to each well. The resulting change in color from dissolving formazan salt was immediately quantified using a spectrophotometer (BMG Labtech) at a wavelength of 570 nm. […] The results are illustrated in FIGS. 1-7.

CCCCCc1cc(O)c(C/C=C(\C)CCC=C(C)C)c(O)c1C(=O)O [CBGA, 3-[(2E)-3,7-dimethylocta-2,6-dienyl]-2,4-dihydroxy-6-pentylbenzoic acid]
BAX expression (BAX): attenuates BAX expression to the control levels | CB1R expression and translocation (CB1R): promotes translocation of CB1R to the Golgi apparatus | MAP2 expression, western blot (MAP2; CBGA 10 μM alone): increased the expression of MAP2 | MAP2 expression, western blot (MAP2; CBGA 10 μM with Aβ): abrogates Aβ mediated downregulation of MAP2 expression | neuroprotection against STSR insult-induced cytotoxicity ([1]; 0.5 μM to 20 μM with STSR 75 nM, FIG. 5): significant dose-dependent neuroprotection | neuroprotection against STSR-induced cytotoxicity ([1]; 0.5 μM, 1.5 μM and 5 μM with STSR 75 nM, 72 hrs, FIG. 3): significant neuroprotection | Cell Death (%) vs STSR at 75 nM, significance ([1]; 5 μM with STSR 75 nM, compared to STSR-alone, One-Way ANOVA, FIG. 3): Statistically significant neuroprotection | protection from STSR induced cytotoxicity ([1]; 5 μM, 10 μM and 15 μM with STSR 75 nM, FIG. 6): protected | Cell Death (%) vs STSR, significance ([1]; 10 μM and 15 μM with STSR 75 nM, FIG. 6): Statistically significant neuroprotection
